This note sets out measurements from patent US9770022B2, “N-cycloalkyl-N-[(bicyclylphenyl)methylene]-(thio)carboxamide derivatives” (BAYER CROPSCIENCE AG, priority 2013, dated 2017).

One data set relates to Sphaerotheca fuliginea. Put plainly: In vivo preventive test on Sphaerotheca fuliginea (powdery mildew on cucurbits). Particulars: gherkin, evaluated 15 days after inoculation. As for the experimental part:
(§1) Solvent: 5% by volume of Dimethyl sulfoxide
(§2) • 10% by volume of Acetone Emulsifier: 1 μl of Tween® 80 per mg of active ingredient
(§3) The active ingredients are made soluble and homogenized in a mixture of Dimethyl sulfoxide/Acetone/Tween® 80 and then diluted in water to the desired concentration.
The young plants of gherkin are treated by spraying the active ingredient prepared as described above. Control plants are treated only with an aqueous solution of Acetone/Dimethyl sulfoxide/Tween® 80.
After 24 hours, the plants are contaminated by spraying the leaves with an aqueous suspension of Sphaerotheca fuliginea spores. The contaminated gherkin plants are incubated for 72 hours at 18° C. and at 100% relative humidity and then for 12 days at 20° C. and at 70-80% relative humidity.
The test is evaluated 15 days after the inoculation. 0% means an efficacy which corresponds to that of the control plants while an efficacy of 100% means that no disease is observed.

For the next data set, the system named is Alternaria brassicae. Put plainly: In vivo preventive test on Alternaria brassicae (leaf spot on radish). The note with it: 500 ppm of active ingredient, spray 24 hours before inoculation, evaluated 6 days after inoculation. The protocol: as §1, §2, §3
The young plants of radish are treated by spraying the active ingredient prepared as described above. Control plants are treated only with an aqueous solution of Acetone/Dimethyl sulfoxide/Tween® 80.
After 24 hours, the plants are contaminated by spraying the leaves with an aqueous suspension of Alternaria brassicae spores. The contaminated radish plants are incubated for 6 days at 20° C. and at 100% relative humidity.
The test is evaluated 6 days after the inoculation. 0% means an efficacy which corresponds to that of the control plants while an efficacy of 100% means that no disease is observed.

The next data set concerns Septoria tritici. Briefly: In vivo preventive test on Septoria tritici (wheat). Particulars: 500 ppm of active ingredient, evaluated 24 days after inoculation. The protocol:
as §1, §2, §3
(§4) The young plants of wheat are treated by spraying the active ingredient prepared as described above. Control plants are treated only with an aqueous solution of Acetone/Dimethyl sulfoxide/Tween® 80.
After 24 hours, the plants are contaminated by spraying the leaves with an aqueous suspension of Septoria tritici spores. The contaminated wheat plants are incubated for 72 hours at 18° C. and at 100% relative humidity and then for 21 days at 20° C. and at 90% relative humidity.
The test is evaluated 24 days after the inoculation. 0% means an efficacy which corresponds to that of the control plants while an efficacy of 100% means that no disease is observed.

The subject of the next data set is Uromyces appendiculatus. Briefly: In vivo preventive test on Uromyces appendiculatus (bean rust). Particulars: for pest or weed control at 500 ppm: Uromyces appendiculatus, 264 h. The protocol: as §1, §2, §3
The young plants of bean are treated by spraying the active ingredient prepared as described above. Control plants are treated only with an aqueous solution of Acetone/Dimethyl sulfoxide/Tween® 80.
After 24 hours, the plants are contaminated by spraying the leaves with an aqueous suspension of Uromyces appendiculatus spores. The contaminated bean plants are incubated for 24 hours at 20° C. and at 100% relative humidity and then for 10 days at 20° C. and at 70-80% relative humidity.
(§5) The test is evaluated 11 days after the inoculation. 0% means an efficacy which corresponds to that of the control plants while an efficacy of 100% means that no disease is observed.

Another data set deals with Pyrenophora teres. Put plainly: In vivo preventive test on Pyrenophora teres (barley). The note with it: 500 ppm of active ingredient, evaluated 14 days after inoculation. The protocol:
as §1, §2, §3
The young plants of barley are treated by spraying the active ingredient prepared as described above. Control plants are treated only with an aqueous solution of Acetone/Dimethyl sulfoxide/Tween® 80.
After 24 hours, the plants are contaminated by spraying the leaves with an aqueous suspension of Pyrenophora teres spores. The contaminated barley plants are incubated for 48 hours at 20° C. and at 100% relative humidity and then for 12 days at 20° C. and at 70-80% relative humidity.
The test is evaluated 14 days after the inoculation. 0% means an efficacy which corresponds to that of the control plants while an efficacy of 100% means that no disease is observed.

Another data set has as its system Puccinia recondita. Briefly: In vivo preventive test on Puccinia recondita (brown rust on wheat). The note with it: 500 ppm of active ingredient, evaluated 11 days after inoculation. As for the experimental part: as §1, §2, §3, §4
After 24 hours, the plants are contaminated by spraying the leaves with an aqueous suspension of Puccinia recondita spores. The contaminated wheat plants are incubated for 24 hours at 20° C. and at 100% relative humidity and then for 10 days at 20° C. and at 70-80% relative humidity.
as §5

Data set [1] can be described thus: log P by HPLC on reversed-phase column (C 18), EEC Directive 79/831 Annex V.A8. Type of data set: physicochemical. Particulars: Table 1, HPLC C 18, 40° C., 0.1% aqueous formic acid and acetonitrile, gradient 10% to 90% acetonitrile, two values = mixture of endo and exo isomers; for chromatographic logP: reversed-phase HPLC column (C 18). The protocol:
In table 1, the log P values were determined in accordance with EEC Directive 79/831 Annex V.A8 by HPLC (High Performance Liquid Chromatography) on a reversed-phase column (C 18), using the method described below:
Temperature: 40° C.; Mobile phases: 0.1% aqueous formic acid and acetonitrile; linear gradient from 10% acetonitrile to 90% acetonitrile.
Calibration was carried out using unbranched alkan-2-ones (comprising 3 to 16 carbon atoms) with known log P values (determination of the log P values by the retention times using linear interpolation between two successive alkanones). lambda-max-values were determined using UV-spectra from 200 nm to 400 nm and the peak values of the chromatographic signals.

[2] abbreviates: 500 ppm of active ingredient, evaluated 11 days after inoculation.
Where [3] appears, read: read-out: Efficacy, 500 ppm of active ingredient, evaluated 11 days after inoculation.
Where [4] appears, read: read-out: Efficacy, 500 ppm, evaluated 11 days after inoculation, Table F2 comparison.

Where two headings read alike, the source gives them in different places.

On to `Cn1nc(C(F)F)c(C(=O)N(Cc2ccccc2C2CC3CCC2C3)C2CC2)c1F` (mixture of isomers) [I.03], for which the Efficacy was 100% in the data set on Sphaerotheca fuliginea (500 ppm of active ingredient); 96% with Alternaria brassicae; 100% with Septoria tritici; 100% in the data set with Uromyces appendiculatus (setting [2]); 100% in the data set on Pyrenophora teres; 98% with Puccinia recondita.

As to `Cn1cc(C(=O)N(Cc2ccccc2C2CC3CCC2C3)C2CC2)c(C(F)F)n1` (mixture of isomers) [I.05], the Efficacy in the data set with Sphaerotheca fuliginea (500 ppm of active ingredient) came to 95%; with Alternaria brassicae it was 80%; in the data set with Septoria tritici, 86%; in the data set with Uromyces appendiculatus (setting [2]), 91%; with Pyrenophora teres, 71%; in the data set on Puccinia recondita, 94%.

Turning to `Cn1nc(C(F)F)c(C(=S)N(Cc2ccccc2C2CC3CCC2C3)C2CC2)c1F` (mixture of isomers) [I.18], the Efficacy in the data set on Sphaerotheca fuliginea (500 ppm of active ingredient) is 100%; in the data set on Alternaria brassicae, 97%; with Septoria tritici, 100%; with Uromyces appendiculatus (setting [2]), 100%; in the data set on Pyrenophora teres it was 94%; in the data set with Puccinia recondita, 88%.

As for `Cn1cc(C(=S)N(Cc2ccccc2C2CC3CCC2C3)C2CC2)c(C(F)F)n1` (mixture of isomers) [I.19], the Efficacy was determined as 95% in the data set on Sphaerotheca fuliginea (500 ppm of active ingredient), 75% in the data set on Alternaria brassicae, 98% in the data set on Septoria tritici and 88% in the data set with Puccinia recondita.

Broadly, the logP is a log measure of how a compound divides between an organic and an aqueous phase. What is called chromatographic logP is a lipophilicity value derived from retention on a column. In the case of `Cc1nn(C)c(F)c1C(=O)N(Cc1ccccc1C1CC2CCC1C2)C1CC1` (centres unmarked) [I.01, N-[2-(bicyclo[2.2.1]hept-2-yl)benzyl]-N-cyclopropyl-5-fluoro-1,3-dimethyl-1H-pyrazole-4-carboxamide], the logP in data set [1] came out at 4.24. Further, the chromatographic logP in data set [1] worked out at 4.16. Further, the Efficacy result was “total protection” with Sphaerotheca fuliginea (100 ppm, Table E2 comparison); 100% with Sphaerotheca fuliginea (500 ppm of active ingredient); 100% in the data set with Septoria tritici; 100% in the data set with Pyrenophora teres; 100% in the data set on Puccinia recondita. For the same compound, the figures for the pest or weed control at 500 ppm with Uromyces appendiculatus (setting [3]) and in the data set on Uromyces appendiculatus (setting [4]) were 100% and not below 80%, respectively.

Take `Cn1nc(C(F)F)c(C(=S)N(Cc2ccccc2C2CC3CCC2C3)C2CC2)c1Cl` (centres unmarked) [I.06]: the logP in data set [1] turned out to be 5.45. Also, the Efficacy in the data set on Sphaerotheca fuliginea (500 ppm of active ingredient) is given as 98%; in the data set with Septoria tritici, 88%; with Uromyces appendiculatus (setting [2]) it was 99%; in the data set with Pyrenophora teres, 75%; in the data set with Puccinia recondita, 88%.

Regarding `Cn1nc(C(F)F)c(C(=O)N(Cc2ccccc2C23CCCC2C3(Cl)Cl)C2CC2)c1F` (centres unmarked) [I.07, N-cyclopropyl-N-[2-(6,6-dichlorobicyclo[3.1.0]hex-1-yl)benzyl]-3-(difluoromethyl)-5-fluoro-1-methyl-1H-pyrazole-4-carboxamide], the chromatographic logP in data set [1] was determined as 4.46. The Efficacy is on record as 100% in the data set on Sphaerotheca fuliginea (500 ppm of active ingredient), 94% in the data set on Septoria tritici, 81% in the data set with Pyrenophora teres and 94% in the data set with Puccinia recondita. Also, the pest or weed control at 500 ppm with Uromyces appendiculatus (500 ppm of active ingredient, evaluated 11 days after inoculation, read-out: Efficacy) stood at 100%.

As to `Cn1nc(C(F)F)c(C(=O)N(Cc2cc(Cl)ccc2C23CCCC2C3(Cl)Cl)C2CC2)c1F` (centres unmarked) [I.08], the logP in data set [1] is 4.85. The Efficacy stood at 100% with Sphaerotheca fuliginea (500 ppm of active ingredient); 94% with Septoria tritici; 99% with Uromyces appendiculatus (setting [2]); 81% with Pyrenophora teres; 88% in the data set on Puccinia recondita.

For the compound `Cn1nc(C(F)F)c(C(=O)N(Cc2cc(C34CCCC3C4(Cl)Cl)ccc2Cl)C2CC2)c1F` (centres unmarked) [I.09], in data set [1], the logP worked out at 4.90. The Efficacy in the data set on Sphaerotheca fuliginea (500 ppm of active ingredient) turned out to be 100%; in the data set on Alternaria brassicae, 75%; with Septoria tritici, 100%; in the data set on Uromyces appendiculatus (setting [2]), 84%; with Pyrenophora teres, 88%.

As for `Cn1nc(C(F)F)c(C(=O)N(Cc2cc(Cl)ccc2C23CCCCC2C3(Cl)Cl)C2CC2)c1F` (centres unmarked) [I.11], the logP in data set [1] stood at 5.22. Besides, the Efficacy was determined as 100% with Sphaerotheca fuliginea (500 ppm of active ingredient), 75% with Alternaria brassicae, 75% with Septoria tritici and 75% in the data set with Puccinia recondita.

Take `Cn1nc(C(F)F)c(C(=O)N(Cc2cc(C34CCCCC3C4(Cl)Cl)ccc2Cl)C2CC2)c1F` (centres unmarked) [I.12]: the logP in data set [1] was determined as 5.25. Also, the Efficacy is on record as 100% in the data set with Sphaerotheca fuliginea (500 ppm of active ingredient), 97% in the data set on Alternaria brassicae, 94% in the data set with Septoria tritici and 75% in the data set on Pyrenophora teres.

Consider `Cn1nc(C(F)F)c(C(=O)N(Cc2ccccc2C23CCCCCC2C3(Cl)Cl)C2CC2)c1F` (centres unmarked) [I.13], for which the logP in data set [1] is given as 5.17. Besides, the Efficacy with Sphaerotheca fuliginea (500 ppm of active ingredient) stood at 100%; in the data set with Alternaria brassicae it was 75%; in the data set on Septoria tritici, 88%; in the data set with Pyrenophora teres, 75%; in the data set with Puccinia recondita it was 81%.

With `Cn1nc(C(F)F)c(C(=O)N(Cc2cc(Cl)ccc2C23CCCCCC2C3(Cl)Cl)C2CC2)c1F` (centres unmarked) [I.14], the lipophilicity (logP) in data set [1] turned out to be 5.54. Further, the Efficacy stood at 100% with Sphaerotheca fuliginea (500 ppm of active ingredient), 83% in the data set with Alternaria brassicae, 94% in the data set with Septoria tritici and 75% with Puccinia recondita.

In the case of `CC(c1ccccc1C1CC2CCC1C2)N(C(=O)c1c(C(F)F)nn(C)c1F)C1CC1` (centres unmarked) [I.15, N-{1-[2-(bicyclo[2.2.1]hept-2-yl)phenyl]ethyl}-N-cyclopropyl-3-(difluoromethyl)-5-fluoro-1-methyl-1H-pyrazole-4-carboxamide], the logP in data set [1] was 4.98. For the same compound, the chromatographic logP in data set [1] turned out to be 4.91. Also, the Efficacy in the data set on Sphaerotheca fuliginea (500 ppm of active ingredient) came to 100%; in the data set on Alternaria brassicae, 97%; in the data set on Septoria tritici, 100%; with Pyrenophora teres, 100%; with Puccinia recondita it was 88%. The pest or weed control at 500 ppm in the data set with Uromyces appendiculatus (setting [3]) is 88%; in the data set with Uromyces appendiculatus (setting [4]) it was not below 80%; with Uromyces appendiculatus (read-out: Efficacy, 500 ppm, evaluated 11 days after inoculation, Table F3 comparison) it was not below 80%.

On to `CC(C)c1ccc(C2=CC3CCC2(C)C3(C)C)cc1CN(C(=O)c1c(C(F)F)nn(C)c1F)C1CC1` (centres unmarked) [I.16], for which the logP in data set [1] was 6.46. For the same compound, the Efficacy in the data set with Sphaerotheca fuliginea (500 ppm of active ingredient) is on record as 100%; with Alternaria brassicae, 79%; in the data set on Septoria tritici it was 100%; in the data set with Pyrenophora teres, 94%; in the data set on Puccinia recondita it was 94%.
